Earlier results on one compound are cited in patent US20170252373A1, “COMBINATION THERAPY FOR THE TREATMENT OF HAIR LOSS” (priority 2016, published 2017).

Structures are written as SMILES.

In the series the test system is male-pattern hair loss. Particulars: within three months of starting treatment; also at 24 and 48 months with continued use.

Take `CC(C)(C)NC(=O)[C@H]1CC[C@H]2[C@@H]3CC[C@H]4NC(=O)C=C[C@]4(C)[C@H]3CC[C@]12C` [finasteride]: the “hair on the scalp” value is “Increased hair on the scalp”.
